This note sets out measurements from US20130171098A1, “Cyclopropyl Fused Indolobenzazepine HCV NS5B Inhibitors” (priority 2006, published 2013).

The structures appear in SMILES notation. Read-outs that look alike come from different tables or passages of the source.

One assay deals with HCV replicon cells. The experiment in a line: HCV replicon FRET / luciferase assay. In kind it is cell-based, Hepatitis C virus. The method, then: The HCV FRET screening assay was performed in 96-well cell culture plates. The FRET peptide (Anaspec, Inc.) (Taliani et al., Anal. Biochem. 1996, 240, 60-67) contains a fluorescence donor, EDANS, near one end of the peptide and an acceptor, DABCYL, near the other end. The fluorescence of the peptide is quenched by […] resonance energy transfer (RET) between the donor and the acceptor, but as the NS3 protease cleaves the peptide the products are released from RET quenching and the fluorescence of the donor becomes apparent. The assay reagent was made as follows: 5× cell Luciferase cell culture lysis reagent from Promega (#E153A) diluted to 1× with dH2O, NaCl added to 150 mM final, the FRET peptide diluted to 20 μM final from a 2 mM stock.
To prepare plates, HCV replicon cells, with or without a Renilla luciferase reporter gene, were trypsinized and plated in a 96-well plate with titrated test compounds added in columns 3 through 12; columns 1 and 2 contained a control compound (HCV control inhibitor), and the bottom row contained cells with DMSO only. The plates were then placed in a CO2 incubator at 37° C.
Subsequent to addition of the test compounds described above (FRET Assay Preparation), at various times the plate was removed and Alamar blue solution (Trek Diagnostics, #00-100) was added to measure cellular toxicity. After reading in a Cytoflour 4000 instrument (PE Biosystems), plates were rinsed with PBS and then used for FRET assay by the addition of 30 ul of the FRET peptide assay reagent described above (FRET Assay Preparation) per well. The plate was then placed into the Cytoflour 4000 instrument which had been set to 340 excite/490 emission, automatic mode for up to 20 cycles and the plate read in a kinetic mode. Typically, the signal to noise using an endpoint analysis after the reads was at least three-fold. Alternatively, after Alamar blue reading, plates were rinsed with PBS, then used for luciferase assay using the Promega Dual-Glo Luciferase Assay System or the Promega EnduRen Live Cell Substrate assay.
Compound analysis was performed by quantification of the relative HCV replicon inhibition and the relative cytotoxicity values. To calculate cytoxicity values, the average Alamar Blue fluorescence signals from the control wells were set as 100% non-toxic. The individual signals in each of the compound test wells were then divided by the average control signal and multiplied by 100% to determine […]. To calculate the HCV replicon inhibition values, an average background value was obtained from the two wells containing the highest amount of HCV control inhibitor at the end of the assay period. These numbers were similar to those obtained from naïve Huh-7 cells. The background numbers were then subtracted from the average signal obtained from the control wells and this number was used as 100% activity. The individual signals in each of the compound test wells were then divided by the averaged control values after background subtraction and multiplied by 100% to determine percent activity. […] The two numbers generated for the compound plate, percent cytoxicity and percent activity, were used to determine compounds of interest for further analysis.
For orientation: Replicon systems follow genome replication, usually without infectious particles.

In assay [1] the target is T1, HCV NS5B RdRp genotype 1b (Hepatitis C virus genotype 1b, UniProt Q9WMX2).
T1 construct: The protein was expressed with an 18 amino acid C-terminal truncation to enhance the solubility; made in house; host or cells: E. coli BL21(DE3), pET21a vector
Briefly: HCV NS5B RdRp enzyme assay (standard / modified). The assay is classed as biochemical. How it is done: HCV NS5B RdRp Cloning, Expression, and Purification.
The cDNA encoding the NS5B protein of HCV, genotype 1b, was cloned into the pET21a expression vector. The protein was expressed with an 18 amino acid C-terminal truncation to enhance the solubility. The E. coli competent cell line BL21(DE3) was used for expression of the protein. Cultures were grown at 37° C. for ˜4 hours until the cultures reached an optical density of 2.0 at 600 nm. The cultures were cooled to 20° C. and induced with 1 mM IPTG. Fresh ampicillin was added to a final concentration of 50 μg/ml and the cells were grown overnight at 20° C.
The lysis buffer consisted of 20 mM Tris-HCl, pH 7.4, 500 mM NaCl, 0.5% triton X-100, 1 mM DTT, 1 mM EDTA, 20% glycerol, 0.5 mg/ml lysozyme, 10 mM MgCl2, 15 ug/ml deoxyribonuclease I, and Complete TM protease inhibitor tablets (Roche). After addition of the lysis buffer, frozen cell pellets were resuspended using a tissue homogenizer. To reduce the viscosity of the sample, aliquots of the lysate were sonicated on ice using a microtip attached to a Branson sonicator. The sonicated lysate was centrifuged at 100,000×g for 1 hr at 4° C. and filtered through a 0.2 μm filter unit (Corning).
The protein was purified using two sequential chromatography steps: Heparin sepharose CL-6B and polyU sepharose 4B (Pharmacia). The chromatography buffers were identical to the lysis buffer but contained no lysozyme, deoxyribonuclease I, MgCl2 or protease inhibitor and the NaCl concentration of the buffer was adjusted according to the requirements for charging the protein onto the column. Each column was eluted with a NaCl gradient which varied in length from 5-50 column volumes depending on the column type. […] The enzyme was aliquoted and stored at −80° C.
Standard HCV NS5B RdRp Enzyme Assay.
HCV RdRp genotype 1b assays were run in a final volume of 60 μl in 96 well plates (Corning 3600). The assay buffer is composed of 20 mM Hepes, pH 7.5, 2.5 mM KCl, 2.5 mM MgCl2, 1 mM DTT, 1.6 U RNAse inhibitor (Promega N2515), 0.01 mg/ml BSA (Sigma B6917), and 2% glycerol. All compounds were serially diluted (3-fold) in DMSO and diluted further in water such that the final concentration of DMSO in the assay was 2%. HCV RdRp genotype 1b enzyme was used at a final concentration of 28 nM. A polyA template was used at 6 nM, and a biotinylated oligo-dT12 primer was used at 180 nM final concentration. Template was obtained commercially (Amersham 27-4110). Biotinylated primer was prepared by Sigma Genosys. 3H-UTP was used at 0.6 μCi (0.29 μM total UTP). Reactions were initiated by the addition of enzyme, incubated at 30° C. for 60 min, and stopped by adding 25 μl of 50 mM EDTA containing SPA beads (4 μg/μl, Amersham RPNQ 0007). Plates were read on a Packard Top Count NXT after >1 hr incubation at room temperature.
Modified HCV NS5B RdRp Enzyme Assay.
A modified enzyme assay was performed essentially as described for the standard enzyme assay except for the following: The biotinylated oligo dT12 primer was precaptured on streptavidin-coated SPA beads by mixing primer and beads in assay buffer and incubating at room temperature for one hour. Unbound primer was removed after centrifugation. The primer-bound beads were resuspended in 20 mM Hepes buffer, pH 7.5 and used in the assay at final concentrations of 20 nM primer and 0.67 μg/μl beads. Order of addition in the assay: enzyme (1.75 nM) was added to diluted compound followed by the addition of a mixture of template (0.36 nM), 3H-UTP (0.6 μCi, 0.29 μM), and primer-bound beads, to initiate the reaction; concentrations given are final. Reactions were allowed to proceed for 4 hours at 30° C.
IC50 values for compounds were determined using seven different [I].

[2] abbreviates: HCV replicon cells, FRET or luciferase activity.
Setting [3] is: HCV NS5B RdRp genotype 1b enzyme.

T1 sequence (Q9WMX2 2420-2992): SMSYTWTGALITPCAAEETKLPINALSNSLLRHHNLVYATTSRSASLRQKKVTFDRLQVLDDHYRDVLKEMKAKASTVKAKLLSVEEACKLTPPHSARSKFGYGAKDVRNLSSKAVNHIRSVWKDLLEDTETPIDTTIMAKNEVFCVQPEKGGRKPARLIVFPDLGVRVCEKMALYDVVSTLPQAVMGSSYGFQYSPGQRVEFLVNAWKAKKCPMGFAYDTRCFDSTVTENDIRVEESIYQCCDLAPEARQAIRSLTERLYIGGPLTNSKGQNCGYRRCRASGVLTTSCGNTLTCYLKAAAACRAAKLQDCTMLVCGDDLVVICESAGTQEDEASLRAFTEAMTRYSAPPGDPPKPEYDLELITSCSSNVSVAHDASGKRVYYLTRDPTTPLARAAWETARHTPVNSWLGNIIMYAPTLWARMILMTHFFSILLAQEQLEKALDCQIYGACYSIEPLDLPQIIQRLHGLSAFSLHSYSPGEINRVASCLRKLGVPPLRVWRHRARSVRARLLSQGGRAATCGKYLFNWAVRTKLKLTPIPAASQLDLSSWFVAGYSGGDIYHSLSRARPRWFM

With `COc1ccc2c(c1)C1CC1(C(=O)N1C3CCC1CN(Cc1ccccc1)C3)Cn1c-2c(C2CCCCC2)c2ccc(C(=O)NS(=O)(=O)N(C)C)cc21` (stereo not drawn) [drawing 33], the EC50 (in general, the concentration giving half of the maximal effect) in the assay on HCV replicon cells (Hepatitis C virus) is 0.001 to 0.5 µM. Moreover, the IC50 (commonly the concentration that gives 50% inhibition) in assay [1] was in the range of 0.001 to 0.5 µM.
As for `COc1ccc2c(c1)C1CC1(C(=O)N1C3CCC1CNC3)Cn1c-2c(C2CCCCC2)c2ccc(C(=O)NS(=O)(=O)N(C)C)cc21` (stereo not drawn) [drawing 34], the EC50 with HCV replicon cells (Hepatitis C virus) was in the range of 0.001 to 0.5 µM. Also, the IC50 in assay [1] is 0.001 to 0.5 µM.
Compound `COc1ccc2c(c1)C1CC1(C(=O)N1C3CCC1CN(C(C)=O)C3)Cn1c-2c(C2CCCCC2)c2ccc(C(=O)NS(=O)(=O)N(C)C)cc21` (stereo not drawn) [drawing 35] showed an EC50 in the assay on HCV replicon cells (Hepatitis C virus) of 0.001 to 0.5 µM. The same compound came in with a half-inhibitory concentration (IC50) in assay [1] of 0.001 to 0.5 µM.
Turning to `CCN1CC2CCC(C1)N2C(=O)C12CC1c1cc(OC)ccc1-c1c(C3CCCCC3)c3ccc(C(=O)NS(=O)(=O)N(C)C)cc3n1C2` (stereo not drawn) [drawing 36], the EC50 with HCV replicon cells (Hepatitis C virus) fell in the range of 0.001 to 0.5 µM. Further, the IC50 in assay [1] is 0.001 to 0.5 µM.
In the assay on HCV replicon cells (Hepatitis C virus), `COc1ccc2c(c1)C1CC1(C(=O)N1C3CCC1CN(C(C)C)C3)Cn1c-2c(C2CCCCC2)c2ccc(C(=O)NS(=O)(=O)N(C)C)cc21` (stereo not drawn) [drawing 37] came in with an EC50 of 0.001 to 0.5 µM. For the same compound, in assay [1], the IC50 lay in the range of 0.001 to 0.5 µM.
On to `COc1ccc2c(c1)C1CC1(C(=O)N1C3CCC1CN(C)C3)Cn1c-2c(C2CCCCC2)c2ccc(C(=O)NS(N)(=O)=O)cc21` (stereo not drawn) [drawing 38], for which the EC50 with HCV replicon cells (Hepatitis C virus) was 0.001 to 0.5 µM. Further, the IC50 in assay [1] was 0.001 to 0.5 µM.
As to `COc1ccc2c(c1)C1CC1(C(=O)NC1CC3CCC(C1)N3C)Cn1c-2c(C2CCCCC2)c2ccc(C(=O)NS(=O)(=O)N(C)C)cc21` (stereo not drawn) [drawing 39], the EC50 in the assay on HCV replicon cells (Hepatitis C virus) is 0.001 to 0.5 µM. Also, the half-maximal inhibitory concentration (IC50) in assay [1] lay in the range of 0.001 to 0.5 µM.
In the case of `COc1ccc2c(c1)C1CC1(C(=O)N1C3CCC1CN(CC1CC1)C3)Cn1c-2c(C2CCCCC2)c2ccc(C(=O)NS(=O)(=O)N(C)C)cc21` (stereo not drawn) [drawing 40], the EC50 with HCV replicon cells (Hepatitis C virus) lay within 0.001 to 0.5 µM. In assay [1], this compound came in with an IC50 of 0.001 to 0.5 µM.
In turn, `COc1ccc2c(c1)C1CC1(C(=O)N1C3CCC1CN(c1ccccn1)C3)Cn1c-2c(C2CCCCC2)c2ccc(C(=O)NS(=O)(=O)N(C)C)cc21` (stereo not drawn) [drawing 41] gave an EC50 in the assay on HCV replicon cells (Hepatitis C virus) of 0.001 to 0.5 µM. For the same compound, in assay [1], the 50% inhibitory concentration (IC50) was 0.001 to 0.5 µM.
For `COc1ccc2c(c1)C1CC1(C(=O)N1C3CCC1CN(C)C3)Cn1c-2c(C2CCCCC2)c2ccc(C(=O)NS(=O)(=O)NC3CC3)cc21` (stereo not drawn) [drawing 42], the EC50 with HCV replicon cells (Hepatitis C virus) lay in the range of 0.001 to 0.5 µM. In assay [1], this compound displayed an IC50 of 0.001 to 0.5 µM.
As for `CN1CC2CCC(C1)N2C(=O)C12CC1c1cc(OCc3ccccc3)ccc1-c1c(C3CCCCC3)c3ccc(C(=O)NS(=O)(=O)N(C)C)cc3n1C2` (stereo not drawn) [drawing 43], the concentration for a half-maximal effect (EC50) with HCV replicon cells (Hepatitis C virus) was in the range of 0.001 to 0.5 µM. This compound also returned an IC50 in assay [1] of 0.001 to 0.5 µM.
`CN1CC2CCC(C1)N2C(=O)C12CC1c1cc(O)ccc1-c1c(C3CCCCC3)c3ccc(C(=O)NS(=O)(=O)N(C)C)cc3n1C2` (stereo not drawn) [drawing 44] registered an EC50 in the assay on HCV replicon cells (Hepatitis C virus) of 0.001 to 0.5 µM. The IC50 in assay [1] lay within 0.001 to 0.5 µM.
On to `COc1ccc2c(c1)C1CC1(C(=O)N1C3CCC1CN(C)C3)Cn1c-2c(C2CCCCC2)c2ccc(C(=O)NS(=O)(=O)N(C)C)cc21` (stereo not drawn) [drawing 46], for which, in the assay with HCV replicon cells (Hepatitis C virus, HCV replicon cells, FRET or luciferase activity, read-out: EC50), the EC50 was 0.001 to 0.5 µM. Also, the IC50 in assay [1] (HCV NS5B RdRp genotype 1b enzyme, read-out: IC50) is 0.001 to 0.5 µM.
Compound `CNS(=O)(=O)NC(=O)c1ccc2c(C3CCCCC3)c3n(c2c1)CC1(C(=O)N2C4CCC2CN(C)C4)CC1c1cc(OC)ccc1-3` (stereo not drawn) [drawing 47] had an EC50 in the assay with HCV replicon cells (setting [2]) of 0.001 to 0.5 µM. The concentration for half-maximal inhibition (IC50) in assay [1] (setting [3]) lay within 0.001 to 0.5 µM.
On to `CNS(=O)(=O)NC(=O)c1ccc2c(C3CCCCC3)c3n(c2c1)CC1(C(=O)N2C4CCC2CN(C)C4)CC1c1cc(OC)ccc1-3` (stereo not drawn) [drawing 48], for which the EC50 in the assay with HCV replicon cells (setting [2]) is 0.001 to 0.5 µM. The compound further returned an IC50 in assay [1] (setting [3]) of 0.001 to 0.5 µM.
For the compound `CNS(=O)(=O)NC(=O)c1ccc2c(C3CCCCC3)c3n(c2c1)CC1(C(=O)N2C4CCC2CN(C)C4)CC1c1cc(OC)ccc1-3` (stereo not drawn) [drawing 50], the EC50 in the assay with HCV replicon cells (setting [2]) is 0.001 to 0.5 µM. The compound also returned an IC50 in assay [1] (setting [3]) of 0.001 to 0.5 µM.
As to `COc1ccc2c(c1)C1CC1(C(=O)N1C3CCC1CN(C)C3)Cn1c-2c(C2CCCCC2)c2ccc(C(=O)NS(=O)(=O)N3CCC3)cc21` (stereo not drawn) [drawing 51], the concentration giving a half-maximal response (EC50) in the assay with HCV replicon cells (setting [2]) lay in the range of 0.001 to 0.5 µM. The half-inhibitory concentration (IC50) in assay [1] (setting [3]) fell in the range of 0.001 to 0.5 µM.
In turn, `COc1ccc2c(c1)C1CC1(C(=O)N1C3CCC1CN(C)C3)Cn1c-2c(C2CCCCC2)c2ccc(C(=O)NS(=O)(=O)N3CCOCC3)cc21` (stereo not drawn) [drawing 53] came in with an EC50 in the assay on HCV replicon cells (setting [2]) of 0.001 to 0.5 µM. In addition, the IC50 in assay [1] (setting [3]) fell in the range of 0.001 to 0.5 µM.
